Source: ChEMBL document CHEMBL1133859, “Unprecedented sugar-dependent in vivo antitumor activity of carbohydrate-pendant cis-diamminedichloroplatinum(II) complexes” (Bioorg Med Chem Lett, 2001)

Assay: Lethal dose in mice
Assay type: toxicity
Conditions: mouse, in vivo

Sequence: CISPLATIN
- LD50: 10 mg/kg
